In patent US9303092B2, “Methamphetamine-like hapten compounds, linkers, carriers and compositions and uses thereof” (The Board of Trustees of the University of Arkansas, priority 2000, dated 2016):

Experiments:
[1] = system: mAb4G9; test: RIA binding specificity, relative potency to METH; parameters: species or system mouse; conditions: RIA IC50 value for METH/RIA IC50 value for test ligand
[2] = system: mAb6H8; test: RIA binding specificity, relative potency to METH; parameters: species or system mouse; conditions: RIA IC50 value for METH/RIA IC50 value for test ligand
[3] = system: mAb6H4; test: RIA binding specificity, relative potency to METH; parameters: species or system mouse; conditions: RIA IC50 value for METH/RIA IC50 value for test ligand
[4] = system: (+)methamphetamine induced effects; test: Pretreatment with anti-(+)methamphetamine monoclonal antibody before 1 mg/kg (+)methamphetamine challenge; type: in vivo, rat; conditions: 1.0 mg/kg i.v.
Procedure: Rats (n=7/group) were administered a dose of […] of anti-methamphetamine monoclonal antibody on day 1. The following day they were administered i.v. (+)methamphetamine (1.0 mg/kg) 3 days apart on two occasions to stabilize locomotor responses and to minimize sensitization.

[5] = system: discriminative stimulus effects of (+)-methamphetamine; test: Drug discrimination in rats; conditions: i.p., group III
[6] = system: discriminative stimulus effects of (+)-methamphetamine; test: Drug discrimination in pigeons; conditions: i.m.
Procedure: The pigeons used in these experiments had performed in experiments previously.
Training continued for 40 min or until the pigeons had received 20 reinforcers, whichever occurred first. […] In the determination of cumulative dose-response curves, a dose of drug was administered and the pigeon was placed in the chamber for 10 min, after which the chamber and key lights were illuminated. The pigeon was tested for 5 min or until one food reinforcer had been delivered, whichever occurred first. Food was delivered following the completion of 20 responses on one of the two keys. After food had been delivered, or the session had timed out, the bird was removed from the chamber, a higher dose was administered, and the process was repeated.
Because only a few birds were still available for these experiments, the data for days 1-2 and days 7-8 were combined.
All doses are expressed as the salts.

[7] = Preliminary studies of high i.v. (+)-methamphetamine doses
[8] = from Riviere et al. (1999); cited from earlier work
[9] = system: (+)-methamphetamine-induced locomotor activity; test: (+)-Methamphetamine locomotor activity studies, rat overdose model, mAb at t=30 min; type: in vivo
Procedure: The parameters of distance traveled (in centimeters or meters), number of rearing events, and time spent moving (in seconds) were individually quantified for each animal. […] Briefly, animals were placed in polyethylene chambers that contained a bedding of dark-gray clay. Animal behavior was videotaped, and the video images were digitized and quantitated in 4-min intervals by EthoVision software (Noldus Information Technology Inc., Sterling, Va.). The duration of drug action was calculated for each parameter starting at 30 min (time of treatment) and until the locomotor activity returned to baseline.
Rats were habituated to the behavioral monitoring chambers before the start of the experimental protocol. This was accomplished by placing the rats in the chambers for a minimum of 3 h per day for 4-6 consecutive days. […] The rats in each group were dosed every three days for a total of 10 days.
On day 1, all groups received saline followed at 30 min by mAb buffer to obtain baseline (non-drug-induced) behavior.
All control buffer and mAb solutions were administered via the jugular venous catheter in an 8-ml volume at 2 ml/min. Three days after the end of the experimental protocol for the 1-mg/kg group, locomotor activity from a second saline administration was monitored to determine whether any changes had occurred in baseline activity.
All other aspects of the protocol were as just described.

[10] = system: methamphetamine-induced locomotor activity; test: Anti-METH Fab treatment of methamphetamine-induced behavioral effects; type: in vivo, rat; conditions: 1 mg/kg iv methamphetamine, treatment at 30 min
Procedure: Rats (n=4 per group) were administered saline (left most bar) or 1.0 mg/kg d-methamphetamine as an intravenous bolus dose. When drug effects were maximizing at 30 minutes, they were treated with saline (control), an anti-phencyclidine monoclonal antibody Fab fragment (anti-PCP), or an anti-d-methamphetamine-specific monoclonal antibody Fab fragment (anti-methamphetamine).

[11] = (+)-Methamphetamine and (+)-amphetamine pharmacokinetic studies in serum and brain with and without mAb6H4; conditions: for AUC(0-t): male, Sprague-Dawley, rat, in vivo, Serum
Procedure: This allowed the administration of approximately 100 μCi per rat by injection of 1 μl/g of rat body weight.
Male Sprague-Dawley rats were randomly placed into two groups. […] Ethyl ether was used for anesthesia so that hemodynamic stability could be maintained before animal sacrifice. Immediately after blood collection, the rats were decapitated and the brain was removed. The brain was rinsed with saline, weighed, and placed in liquid nitrogen within 3 min of decapitation. Hematocrit values were obtained for each animal. The blood was allowed to clot and serum was obtained after centrifugation. The serum and brain tissues were stored at −80° C. until analyzed.
The second group was the mAb-treatment group. All aspects of the experiment were same as those described for the control group, with the following exception. […] The mAb was given via the jugular venous catheter in an 8-ml volume at 2 ml/min. Because the experimental protocol was the same up until the mAb was administered, the time points before 30 min were not repeated in this group.
For serum analysis, 300 μl of guanidine HCl was added to 200-μl of each serum sample to denature the proteins. The samples were vortexed and placed on a gentle shaker for 30 min. […] After sample application, the cartridges were centrifuged at 230 g for 1 min, washed with 1 ml of water, and then centrifuged. […] Then, 1 ml of methanol:acetic acid (98:2) was added, followed by centrifugation.
A 200-μl aliquot was then added to 300 μl of 8 M guanidine HCl. The mixture was vortexed and gently shaked for 30 min. […] The mixture was vortexed, placed on ice for 5 min, and centrifuged at 12,500 g for 5 min.
Supernatants from the brain samples were applied to conditioned extraction cartridges and then centrifuged at 600 g for 4 min. The brain precipitates left over from the 12,500 g centrifugation were resuspended in 500 μl of water and centrifuged at 12,500 g for 3 min. The supernatants were then added to their respective extraction columns and centrifuged at 600 g for 4 min. This was followed by a 1-ml water wash, with another 4 min centrifugation at 600 g. Finally, the cartridges were placed in siliconized test tubes for sample collection. The elution process was as described for the serum samples.
After elution, the samples were taken to dryness over 3 h in a vacuum centrifuge (Savant Instruments, Inc., Farmingdale, N.Y.) with no heat or cryopumping.
The data were fit to both two- and three-compartment i.v. bolus models, with y (predicted concentration), 1/y, or 1/y^2 weighting. The best-fit line was chosen by visual inspection and analysis of the residuals. […] All pharmacokinetic analysis was performed with the use of WinNonlin V3.0 (Pharsight Corporation, Mountain View, Calif.).

[12] = after intravenous (+)-methamphetamine; cited from earlier work

Compound | Relative Potency to METH, mAb4G9 [1] | Relative Potency to METH, mAb6H8 [2] | Relative Potency to METH, mAb6H4 [3] | also measured
CC(N)C(O)c1ccccc1 (single isomer, unassigned; (+)) [(+)phenylpropanolamine] | <0.001 | <0.001 | <0.001 | 
CN[C@H](C)[C@@H](O)c1ccccc1 [(+)ephedrine] | <0.001 | <0.001 | <0.001 | 
CNC[C@H](O)c1cccc(O)c1 [/-phenylphrine] | <0.001 | <0.001 | 0.001 | 
(+)-methamphetamine [(+)METH] |  |  |  | duration of action of (+)methamphetamine without the monoclonal antibody [4]: about 160 min; potency of (+)-methamphetamine and (+)-amphetamine as discriminative stimuli compared [5]: nearly equipotent; potency of (+)-methamphetamine and (+)-amphetamine compared [6]: approximately equipotent; doses sometimes lethal [7]: 10 mg/kg; i.v. doses that led to self-mutilation [7]: ≥ 5.2 mg/kg; t1/2dist of (+)-methamphetamine in serum [8]: 9 min; duration of (+)-methamphetamine-induced locomotor effects following buffer ([9]; 0.3-mg/kg dose): approximately 1 h; duration of (+)-methamphetamine-induced locomotor effects following buffer ([9]; 1.0-mg/kg dose): ~2 h; duration of drug action following buffer ([9]; 3.0-mg/kg group): 4 h; duration of action / activity, distance traveled parameter [10]: 116 ± 17 min
NC[C@H](O)c1ccc(O)c(O)c1 [norepinepherine] | <0.001 | <0.001 | <0.001 | 
(+)norpseudoephedrine | <0.001 | <0.001 | <0.001 | 
NCCc1ccccc1 [β-phenylethylamine] | 0.001 | <0.001 | <0.001 | 
NCCc1c[nH]c2ccc(O)cc12 [serotonin] | <0.001 | <0.001 | <0.001 | 
CNC(C)Cc1ccc(O)cc1 (centres unmarked) [4-OH-METH] | 0.106 | 0.294 | 0.588 | 
CNC[C@H](O)c1ccc(O)c(O)c1 [epinephrine] | <0.001 | <0.001 | <0.001 | 
CNC(C)Cc1ccc2c(c1)OCO2 (single isomer, unassigned; (+)) [(+)MDMA, (+)-3,4-methylenedioxymethamphetamine] | 0.29 | 3.40 | 1.25 | 
CNC(C)Cc1ccc2c(c1)OCO2 (single isomer, unassigned; (-)) [(−)MDMA] | 0.011 | 0.018 | 0.007 | 
NCCc1ccc(O)cc1 [tyramine] | <0.001 | <0.001 | <0.001 | 
CC(N)Cc1ccc2c(c1)OCO2 (single isomer, unassigned; (-)) [(−)MDA] | 0.002 | <0.001 | <0.001 | 
CC(N)Cc1ccc2c(c1)OCO2 (single isomer, unassigned; (+)) [(+)MDA] | 0.090 | 0.024 | 0.001 | 
CN[C@H](C)Cc1ccccc1 [(−)METH] | 0.102 | 0.011 | 0.030 | 
NCCc1ccc(O)c(O)c1 [dopamine] | <0.001 | <0.001 | <0.001 | 
(+)pseudoephedrine | 0.004 | 0.018 | <0.001 | 
CC(N)Cc1ccccc1 (single isomer, unassigned; (+)) [(+)AMP, (+)-amphetamine] |  |  |  | potency of (+)-methamphetamine and (+)-amphetamine as discriminative stimuli compared [5]: nearly equipotent; potency of (+)-methamphetamine and (+)-amphetamine compared [6]: approximately equipotent; AUC38 min-[…] Treated ([11]; Brain, 1-mol equivalent dose of mAb at 30 min): 284 ng·h/g; AUC38 min-[…] Control ([11]; Brain, without treatment): 530 ng·h/g; AUC(0-t) ([11]; AUC38 min-[…] Control, without treatment): 55 ng·h/mL; AUC(0-t) ([11]; AUC38 min-[…] Treated, 1-mol equivalent dose of mAb at 30 min): 73 ng·h/mL; time to peak plasma levels of (+)-amphetamine [12]: ≤ 20 min
